From patent US8609690B2, “Aryl- and heteroarylcarbonyl derivatives of substituted nortropanes, medicaments containing such compounds and their use” (Boehringer Ingelheim International GmbH, priority 2008, dated 2013) come the findings set out here.

Molecules are shown by their SMILES.

The experiment addresses T1, 11β-HSD 1 (Homo sapiens, UniProt P28845).
T1 construct: detecting cortisol generated from cortisterone by human liver microsomes; from tissue; host or cells: human liver microsomes
The experiment can be described thus: In vitro inhibition of 11β-HSD 1, HTRF detection of cortisol generated by human liver microsomes. Format: biochemical. To be noted: 1 μM test compound, 100% indicates no inhibition, zero or below zero indicates complete inhibition (relative to carbenoxolone). Put shortly:
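Human liver microsomes with test compound were incubated 1 h at 37 °C in Tris buffer, pH 6.0, with 200 μM NADPH and 80 nM cortisone. Cortisol formed was detected by competitive HTRF immunoassay (665/615 nm ratio) and calibrated against a cortisol standard curve. Values are activities at 1 μM compound relative to carbenoxolone, where 100% indicates no inhibition.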
(In general: Time-resolved FRET reads energy transfer from a long-lived donor to a nearby acceptor.)

T1 sequence (P28845 whole entry): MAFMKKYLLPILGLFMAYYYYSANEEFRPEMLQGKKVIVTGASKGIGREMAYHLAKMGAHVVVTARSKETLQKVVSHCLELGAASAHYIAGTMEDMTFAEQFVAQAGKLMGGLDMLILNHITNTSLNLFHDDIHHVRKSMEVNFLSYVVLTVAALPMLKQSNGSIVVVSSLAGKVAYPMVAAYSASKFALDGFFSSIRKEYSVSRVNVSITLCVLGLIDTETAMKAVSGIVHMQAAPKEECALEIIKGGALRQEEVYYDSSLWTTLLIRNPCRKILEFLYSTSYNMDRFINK

For `O=C(c1cccc(N2CCCCS2(=O)=O)c1)N1C2CCC1CC(c1ccc(F)cc1)C2` (stereo not drawn) [Example 40, endo-[3-(1,1-Dioxo-1lambda*6*-[1,2]thiazinan-2-yl)-phenyl-[3-(4-fluoro-phenyl)-8-aza-bicyclo[3.2.1]oct-8-yl]-methanone], the “Inhibitory activity on 11β-HSD 1, % CTL” value is 98 % CTL.
With `CC(=O)c1ccc(C(=O)N2[C@@H]3CC[C@H]2C[C@@H](c2ccc(F)cc2)C3)cc1` [Example 128, endo-1-{4-[3-(4-Fluoro-phenyl)-8-aza-bicyclo[3.2.1]octane-8-carbonyl]-phenyl}-ethanone], the “Inhibitory activity on 11β-HSD 1, % CTL” value was found to be 79 % CTL.
On the same count and under the same terms, with `O=C(c1cnn2cccnc12)N1[C@@H]2CC[C@H]1C[C@@H](c1ccc(F)cc1)C2` [Example 35, endo-[3-(4-Fluoro-phenyl)-8-aza-bicyclo[3.2.1]oct-8-yl]-pyrazolo[1,5-a]pyrimidin-3-yl-methanone] the figure was 62 % CTL.
For `O=C(c1ccccc1F)N1[C@@H]2CC[C@H]1C[C@@H](c1ccc(F)cc1)C2` [Example 57, endo-(2-Fluoro-phenyl)-[3-(4-fluoro-phenyl)-8-aza-bicyclo[3.2.1]oct-8-yl]-methanone], the “Inhibitory activity on 11β-HSD 1, % CTL” value stood at 63 % CTL.
Same read-out and setting: with `Nc1ccc(C(=O)N2[C@@H]3CC[C@H]2C[C@@H](c2ccc(F)cc2)C3)cc1F` [Example 176, endo-(4-Amino-3-fluoro-phenyl)-[3-(4-fluoro-phenyl)-8-aza-bicyclo[3.2.1]oct-8-yl]-methanone] the figure was −42 % CTL; with `O=C(c1ccc2c(c1)OCCO2)N1C2CCC1CC(c1ccccc1F)C2` (centres unmarked) [Example 145, (2,3-Dihydro-benzo[1,4]dioxin-6-yl)-[3-(2-fluoro-phenyl)-8-aza-bicyclo[3.2.1]oct-8-yl]-methanone], −37 % CTL; with `Cc1ccc(C(=O)N2[C@@H]3CC[C@H]2C[C@@H](c2ccc(F)cc2)C3)c(C)c1` [Example 122, endo-(2,4-Dimethyl-phenyl)-[3-(4-fluoro-phenyl)-8-aza-bicyclo[3.2.1]oct-8-yl]-methanone], 63 % CTL.
The same measure, in the same setting: with `O=C(c1cccc2ncccc12)N1[C@@H]2CC[C@H]1C[C@@H](c1ccc(F)cc1)C2` [Example 37, endo-[3-(4-Fluoro-phenyl)-8-aza-bicyclo[3.2.1]oct-8-yl]-quinolin-5-yl-methanone] the figure was 39 % CTL; with `O=C(c1cc(Cl)c(O)c(Cl)c1)N1[C@@H]2CC[C@H]1C[C@@H](c1ccc(F)cc1)C2` [Example 163, endo-(3,5-Dichloro-4-hydroxy-phenyl)-[3-(4-fluoro-phenyl)-8-aza-bicyclo[3.2.1]oct-8-yl]-methanone], −7 % CTL; with `O=C1NCc2cccc(C(=O)N3[C@@H]4CC[C@H]3C[C@@H](c3ccc(F)cc3)C4)c21` [Example 95, endo-7-[3-(4-Fluoro-phenyl)-8-aza-bicyclo[3.2.1]octane-8-carbonyl]-2,3-dihydro-isoindol-1-one], 92 % CTL.
On the same count and under the same terms, with `COc1cc(C(=O)N2[C@@H]3CC[C@H]2C[C@@H](c2ccc(F)cc2)C3)cc(OC)c1OC` [Example 44, endo-[3-(4-Fluoro-phenyl)-8-aza-bicyclo[3.2.1]oct-8-yl]-(3,4,5-trimethoxy-phenyl)-methanone] the figure was 57 % CTL.
For `O=C(c1ccccn1)N1[C@@H]2CC[C@H]1C[C@@H](c1ccc(F)cc1)C2` [Example 18, endo-[3-(4-Fluoro-phenyl)-8-aza-bicyclo[3.2.1]oct-8-yl]-pyridin-2-yl-methanone], the “Inhibitory activity on 11β-HSD 1, % CTL” value (1 µM) is listed as 97 % CTL.
With `Nc1ccc(C(=O)N2[C@@H]3CC[C@H]2C[C@@H](c2ccc(F)cc2)C3)cc1` [Example 177, endo-(4-Amino-phenyl)-[3-(4-fluoro-phenyl)-8-aza-bicyclo[3.2.1]oct-8-yl]-methanone], the “Inhibitory activity on 11β-HSD 1, % CTL” value is recorded as −44 % CTL.
Consider `O=C(c1cc(F)c(O)c(Cl)c1)N1[C@@H]2CC[C@H]1C[C@@H](c1ccc(F)cc1)C2` [Example 179, endo-(3-Chloro-5-fluoro-4-hydroxy-phenyl)-[3-(4-fluoro-phenyl)-8-aza-bicyclo[3.2.1]oct-8-yl]-methanone], for which the “Inhibitory activity on 11β-HSD 1, % CTL” value was −11 % CTL.
Regarding `COc1ccc(C(=O)N2[C@@H]3CC[C@H]2C[C@@H](c2ccc(F)cc2)C3)cc1OC` [Example 118, endo-(3,4-Dimethoxy-phenyl)-[3-(4-fluoro-phenyl)-8-aza-bicyclo[3.2.1]oct-8-yl]-methanone], the “Inhibitory activity on 11β-HSD 1, % CTL” value is listed as −28 % CTL.
On the same count and under the same terms, for `COc1cc(C(=O)N2[C@@H]3CC[C@H]2C[C@@H](c2ccc(F)cc2)C3)cc(Cl)c1O` [Example 175, endo-(3-Chloro-4-hydroxy-5-methoxy-phenyl)-[3-(4-fluoro-phenyl)-8-aza-bicyclo[3.2.1]oct-8-yl]-methanone] the value was −37 % CTL.
The same measure, in the same setting: with `CS(=O)(=O)c1cccc(C(=O)N2[C@@H]3CC[C@H]2C[C@@H](c2ccc(F)cc2)C3)c1` [Example 67, Endo-[3-(4-Fluoro-phenyl)-8-aza-bicyclo[3.2.1]oct-8-yl]-(3-methanesulfonyl-phenyl)-methanone] the figure was 85 % CTL.
Same read-out and setting: with `O=C1Cc2cc(C(=O)N3[C@@H]4CC[C@H]3C[C@@H](c3ccc(F)cc3)C4)ccc2N1` [Example 47, endo-5-[3-(4-Fluoro-phenyl)-8-aza-bicyclo[3.2.1]octane-8-carbonyl]-1,3-dihydro-indol-2-one] the figure was −17 % CTL; with `O=C(c1ccc(O)cc1)N1[C@@H]2CC[C@H]1C[C@@H](c1ccc(F)cc1)C2` [Example 130, endo-[3-(4-Fluoro-phenyl)-8-aza-bicyclo[3.2.1]oct-8-yl]-(4-hydroxy-phenyl)-methanone], −47 % CTL; with `CC(=O)Nc1cccc(C(=O)N2[C@@H]3CC[C@H]2C[C@@H](c2ccc(F)cc2)C3)c1` [Example 64, endo-N-{3-[3-(4-Fluoro-phenyl)-8-aza-bicyclo[3.2.1]octane-8-carbonyl]-phenyl}-acetamide], 99 % CTL.
For the compound `O=C(c1ccccc1)N1[C@@H]2CC[C@H]1C[C@@H](c1ccc(F)cc1)C2` [Example 96, endo-[3-(4-Fluoro-phenyl)-8-aza-bicyclo[3.2.1]oct-8-yl]-phenyl-methanone], the “Inhibitory activity on 11β-HSD 1, % CTL” value was determined as 33 % CTL.
Same read-out and setting: for `O=C(c1ccc2scnc2c1)N1[C@@H]2CC[C@H]1C[C@@H](c1ccc(F)cc1)C2` [Example 93, endo-Benzothiazol-5-yl-[3-(4-fluoro-phenyl)-8-aza-bicyclo[3.2.1]oct-8-yl]-methanone] the value was 38 % CTL; for `COc1ccc([C@@H]2C[C@H]3CC[C@@H](C2)N3C(=O)c2ccc3c(c2)OCCO3)cc1` [Example 135, exo-(2,3-Dihydro-benzo[1,4]dioxin-6-yl)-[3-(4-methoxy-phenyl)-8-aza-bicyclo[3.2.1]oct-8-yl]-methanone], −35 % CTL.
Same read-out and setting: with `O=C(c1cscn1)N1[C@@H]2CC[C@H]1C[C@@H](c1ccc(F)cc1)C2` [Example 43, endo-[3-(4-Fluoro-phenyl)-8-aza-bicyclo[3.2.1]oct-8-yl]-thiazol-4-yl-methanone] the figure was 95 % CTL.
Still for that read-out and setting: for `O=C1Cc2ccc(C(=O)N3[C@@H]4CC[C@H]3C[C@@H](c3ccc(F)cc3)C4)cc2N1` [Example 46, endo-6-[3-(4-Fluoro-phenyl)-8-aza-bicyclo[3.2.1]octane-8-carbonyl]-1,3-dihydro-indol-2-one] the value was 97 % CTL.
Regarding `Cc1[nH]c2cc(C(=O)N3[C@@H]4CC[C@H]3C[C@@H](c3ccc(F)cc3)C4)ccc2c1C` [Example 52, endo-(2,3-Dimethyl-1H-indol-6-yl)-[3-(4-fluoro-phenyl)-8-aza-bicyclo[3.2.1]oct-8-yl]-methanone], the “Inhibitory activity on 11β-HSD 1, % CTL” value is 82 % CTL.
Still for that read-out and setting: with `COc1ccccc1[C@H]1C[C@H]2CC[C@@H](C1)N2C(=O)c1ccc2c(c1)OCCO2` [Example 156, endo-(2,3-Dihydro-benzo[1,4]dioxin-6-yl)-[3-(2-methoxy-phenyl)-8-aza-bicyclo[3.2.1]oct-8-yl]-methanone] the figure was −13 % CTL.
Turning to `O=C(c1cccc(-c2cc[nH]n2)c1)N1[C@@H]2CC[C@H]1C[C@@H](c1ccc(F)cc1)C2` [Example 90, endo-[3-(4-Fluoro-phenyl)-8-aza-bicyclo[3.2.1]oct-8-yl]-[3-(1H-pyrazol-3-yl)-phenyl]-methanone], the “Inhibitory activity on 11β-HSD 1, % CTL” value is given as 42 % CTL.
The same measure, in the same setting: for `O=C(c1ccc(OC2CSC2)cc1)N1[C@@H]2CC[C@H]1C[C@@H](c1ccc(F)cc1)C2` [Example 31, endo-[3-(4-Fluoro-phenyl)-8-aza-bicyclo[3.2.1]oct-8-yl]-[4-(thietan-3-yloxy)-phenyl]-methanone] the value was 86 % CTL; for `CC(C)(C)Oc1cccc(C(=O)N2[C@@H]3CC[C@H]2C[C@@H](c2ccc(F)cc2)C3)c1` [Example 45, endo-(3-tert-Butoxy-phenyl)-[3-(4-fluoro-phenyl)-8-aza-bicyclo[3.2.1]oct-8-yl]-methanone], 82 % CTL.
On to `O=C(c1ccc2c(c1)OCCO2)N1C2CCC1CC(c1ccccc1)C2` (centres unmarked) [Example 133, (2,3-Dihydro-benzo[1,4]dioxin-6-yl)-(3-phenyl-8-aza-bicyclo[3.2.1]oct-8-yl)-methanone], for which the “Inhibitory activity on 11β-HSD 1, % CTL” value is recorded as −28 % CTL.
On the same count and under the same terms, with `Cc1ccc(C(=O)N2[C@@H]3CC[C@H]2C[C@@H](c2ccc(F)cc2)C3)cc1O` [Example 55, endo-[3-(4-Fluoro-phenyl)-8-aza-bicyclo[3.2.1]oct-8-yl]-(3-hydroxy-4-methyl-phenyl)-methanone] the figure was 31 % CTL.
